Laboratory results reported in article PMC9409995, “Pharmacological Properties and Function of the PxOctβ3 Octopamine Receptor in Plutella xylostella (L.)” (Insects, 2022).

Tests used:
[1] = molecular target: T1, PxOctβ3 (Plutella xylostella, UniProt Z9TZ33AL48); assay: intracellular cAMP assay, HEK-293 cells stably expressing the receptor; format: cell-based
T1 construct: pcDNA3.1-PxOctβ3 stably expressed in HEK-293 cells; ORF also cloned in pEGFP-N1

[2] = molecular target: T1, PxOctβ3; assay: as above; format: cell-based; details: agonist; 1 nM-100 μM; b43 prints approximately 65 nM

Compound | fold cAMP at 10 μM ([1]; agonist) [fold] | fold cAMP at 10 μM ([1]; weak agonist) | also measured
NCCc1ccc(O)cc1 [tyramine] | 9.6 |  | 
Clc1cccc(Cl)c1NC1=NCCN1 [clonidine] |  | clonidine, amitraz, and 2-phenylethylamine were barely effective agonists | 
Cc1ccc(/N=C/N(C)/C=N/c2ccc(C)cc2C)c(C)c1 [amitraz] |  | clonidine, amitraz, and 2-phenylethylamine were barely effective agonists | 
NC[C@H](O)c1ccc(O)cc1 [octopamine] |  |  | EC50 [2]: 65 nM
NCCc1ccc(O)c(O)c1 [dopamine] | 2.3 |  | 
NCCc1ccccc1 [2-phenylethylamine] |  | clonidine, amitraz, and 2-phenylethylamine were barely effective agonists | 
